Where a name gives a salt, the structure may show the parent alone.

The test system of the first assay is voltage operated calcium channels. The experiment in a line: Inhibition of depolarization-stimulated 45Ca uptake into brain synaptosomes (crude P2 fraction of cerebral cortex). It counts as biochemical, male Wistar rat. As to conditions: rat cerebral cortex synaptosomes; KCl-depolarized, corrected for basal uptake; 15 s uptake at 37° C.; estimated from dose response curves. The source says: The pharmacological properties of the compounds of the invention can be illustrated by determining their capability to inhibit calcium uptake into brain synaptosomes. Depolarization of neuronal membranes leads to an opening of socalled "voltage operated calcium channels" (VOC) in the membranes which allows a massive influx of calcium from the extracellular space. A crude synaptosomal preparation (socalled P2 fraction) contains small vesicles surrounded by neuronal membrane and it is possible in such a preparation to study a depolarization-induced opening of VOC. In the present model ^45 Ca influx is induced in the synaptosomes by depolarization with elevated potassium concentrations, and the effect of test substances on this stimulated uptake is studied ([…]. and Blaustein, M. P., Mol. […] A male Wistar rat is decapitated and the cerebral cortex removed and homogenized in 10 ml. of ice-cold 0.32M sucrose using a glass homogenizer with a teflon pestle. All subsequent steps for isolation of synaptosomes are done at 0°-4° C. […] This pellet (P2) is resuspended in 0.32M sucrose (5 ml per g of original tissue) with a teflon pestle. […] The tubes are pre-incubated for 30 min on ice and then for 6 min at 37° C. in a water bath. […] The incubation is continued for 15 s. […] The amount of radioactivity on the filter disc is determined by liquid scintillation spectrometry. Test substances are dissolved in 10 ml of 48% ethanol at a concentration of 0.44 mg/ml. Dilution are made in 48% ethanol to give final concentrations of 0.1, 0.3, 1, 3 and 10 μg/ml. Experiments are performed in triplicate. […] The IC50 value is estimated from dose response curves.
Regarding `CCCCN1CC[C@@H](c2ccc(N(C)C)cc2)[C@H](COc2ccc(C(F)(F)F)cc2)C1.Cl` (racemic) [Compound 11, (+-)trans-1-butyl-4-(4-dimethylaminophenyl)-3-(4-trifluoromethylphenoxymethyl)piperidine, hydrochloride], the “IC50 (concentration of test substance which inhibits 50% of stimulated uptake of 45Ca)” value was 4.9 µg/mL.

Take `CCCCN1CC[C@@H](c2ccc(N(C)C)cc2)[C@H](COc2ccc(Cl)c(Cl)c2)C1` (relative stereo) [Compound 52, (+-) trans 1-butyl-3-(3,4-dichlorophenoxymethyl) 4-(4-dimethylaminophenyl)piperidine, HCl]: the “IC50 (concentration of test substance which inhibits 50% of stimulated uptake of 45Ca)” value was 2.8 µg/mL.

With `CCCCCN1CC[C@@H](c2ccc(F)cc2)[C@H](COCc2ccc(C(F)(F)F)cc2)C1` (single isomer, unassigned) [Compound 36, (-) trans-4-(4-fluorophenyl)-1-pentyl-3-(4-trifluoromethylbenzyloxymethyl)-piperidine, HCl], the “IC50 (concentration of test substance which inhibits 50% of stimulated uptake of 45Ca)” value was 6.4 µg/mL.

With `CCCCN1CCC(c2ccccc2)C(CNCc2ccc(OC)cc2)C1` (centres unmarked) [Compound 20, 1-butyl-3-(4-methoxybenzylaminomethyl)-4-phenylpiperidine, HCl], the “IC50 (concentration of test substance which inhibits 50% of stimulated uptake of 45Ca)” value is 2.7 µg/mL. On to `CCCCN1CCC(c2ccccc2)C(CNc2ccc(C(F)(F)F)cc2)C1` (centres unmarked) [Compound 22, 1-butyl-3-(4-trifluoromethylphenylaminomethyl)-4-phenylpiperidine, HCl], for which the “IC50 (concentration of test substance which inhibits 50% of stimulated uptake of 45Ca)” value is 4 µg/mL. `CCCCN1CC[C@@H](c2ccc(N(C)C)cc2)[C@H](COc2ccc3c(c2)OCO3)C1.Cl` (racemic) [Compound 15, (+-)trans-1-butyl-4-(4-dimethylaminophenyl)-3-(3,4-methylenedioxyphenoxymethyl)piperidine, hydrochloride]: the “IC50 (concentration of test substance which inhibits 50% of stimulated uptake of 45Ca)” value was 5.0 µg/mL. On the same count and under the same terms, the result for `CCCCN1CC[C@@H](c2ccc(N(C)C)cc2)[C@H](COc2ccc([N+](=O)[O-])cc2)C1` (relative stereo) [Compound 57, (+-) trans 1-butyl-4-(4-dimethylaminophenyl)-3-(4-nitrophenoxymethyl) piperidine, HCl] reads 3.2 µg/mL; that for `CCCCN1CC[C@@H](c2ccc(N(C)C)cc2)[C@H](COc2cccc(C(F)(F)F)c2)C1.Cl` (racemic) [Compound 17, (+-)trans-1-butyl-4-(4-dimethylaminophenyl)-3-(3-trifluoromethylphenoxymethyl)piperidine, hydrochloride], 7.4 µg/mL. As for `O=[N+]([O-])c1ccc([C@@H]2CCNC[C@H]2COc2cccc(C(F)(F)F)c2)cc1` (single isomer, unassigned) [Compound 9, (31)trans-4-(4-nitrophenyl)-3-(3-trifluoromethylphenoxymethyl)piperidine, hydrochloride], the “IC50 (concentration of test substance which inhibits 50% of stimulated uptake of 45Ca)” value is 7.2 µg/mL. Same read-out and setting: the figure for `CCCCN1CC[C@@H](c2ccc(N(C)C)cc2)[C@H](COc2ccc(Cl)cc2)C1` (relative stereo) [Compound 51, (+-) trans 1-butyl-3-(4-chlorophenoxymethyl)-4-(4-dimethylaminophenyl) piperidine, hydrochloride] is 3.8 µg/mL; for `CCCCCN1CC[C@@H](c2ccc(F)cc2)[C@H](COCc2cccc(C(F)(F)F)c2)C1` (single isomer, unassigned) [Compound 60, (-)trans-4-(4-fluorophenyl)-1-pentyl-3-(3-trifluoromethylbenzyloxymethyl)-piperidine, HCl] it is 5.5 µg/mL; for `CCCCCN1CC[C@@H](c2ccc(N)cc2)[C@H](COc2ccc3c(c2)OCO3)C1.Cl` (single isomer, unassigned) [Compound 10, (+)trans-4-(4-aminophenyl)-3-(3,4-methylenedioxyphenoxymethyl)-1-pentylpiperidine, hydrochloride] it is 8.9 µg/mL.

The same assay, now with this note: rat cerebral cortex synaptosomes; KCl-depolarized, corrected for basal uptake; 15 s uptake at 37° C.; estimated from dose response curves; dihydrochloride.
For the molecule `CCCCN1CC[C@@H](c2ccc(N(C)C)cc2)[C@H](COc2ccc(C(F)(F)F)cc2)C1.Cl.Cl` (single isomer, unassigned) [Compound 65, (-)-trans-1-butyl-4-(4-dimethylaminophenyl)-3-(4-trifluoromethylphenoxymethyl)piperidine dihydrochloride], the “IC50 (concentration of test substance which inhibits 50% of stimulated uptake of 45Ca)” value is 6.5 µg/mL.

On to `CCCCN1CC[C@@H](c2ccc(N(C)C)cc2)[C@H](COc2ccc(C(F)(F)F)cc2)C1.Cl.Cl` (single isomer, unassigned) [Compound 64, (+)-trans-1-butyl-4-(4-dimethylaminophenyl)-3-(4-trifluoromethylphenoxymethyl)piperidine dihydrochloride], for which the “IC50 (concentration of test substance which inhibits 50% of stimulated uptake of 45Ca)” value is 4.2 µg/mL.

For a further assay, the system named is peripheral calcium uptake, e.g. in blood vessels and the heart.
Test: not given
The note with it: well known calcium antagonists; cited from earlier work.
As to `COC(=O)C1=C(C)NC(C)=C(C(=O)OC)C1c1ccccc1[N+](=O)[O-]` [Nifedipine], the “activity against peripheral calcium uptake” value is “have activity against peripheral calcium uptake”. Regarding `COc1ccc(CCN(C)CCCC(C#N)(c2ccc(OC)c(OC)c2)C(C)C)cc1OC` (centres unmarked) [Verapamil], the “activity against peripheral calcium uptake” value is on record as “have activity against peripheral calcium uptake”.

On to `COc1ccc([C@@H]2Sc3ccccc3N(CCN(C)C)C(=O)[C@@H]2OC(C)=O)cc1` [Diltiazem], for which the “activity against peripheral calcium uptake” value was “have activity against peripheral calcium uptake”.
